Measured values reported in patent publication US20220233512A1, “INHIBITING AN IMMUNE RESPONSE MEDIATED BY ONE OR MORE OF TLR2, RAGE, CCR5, CXCR4 AND CD4” (priority 2020, published 2022).

Key:
[1] = biological target: FLNA interactions with CXCR4, CD4 and CCR5 (Homo sapiens, UniProt P21333); assay: FLNA interactions with CXCR4, CD4 and CCR5 in lymphocytes (western blot); settings: 1 nM; lymphocytes of Ab42-treated young control subject and of AD patient
mu opiate receptor (MOR) = biological target: T1, mu opiate receptor (MOR) (Rattus norvegicus, UniProt P33535); assay: MOR agonist activity using [35S]GTPgS binding assay in striatal membranes; format: biochemical; settings: Series C-2 table
T1 construct: from tissue; host or cells: striatum (membrane preparation)
T1 sequence (P33535 whole entry): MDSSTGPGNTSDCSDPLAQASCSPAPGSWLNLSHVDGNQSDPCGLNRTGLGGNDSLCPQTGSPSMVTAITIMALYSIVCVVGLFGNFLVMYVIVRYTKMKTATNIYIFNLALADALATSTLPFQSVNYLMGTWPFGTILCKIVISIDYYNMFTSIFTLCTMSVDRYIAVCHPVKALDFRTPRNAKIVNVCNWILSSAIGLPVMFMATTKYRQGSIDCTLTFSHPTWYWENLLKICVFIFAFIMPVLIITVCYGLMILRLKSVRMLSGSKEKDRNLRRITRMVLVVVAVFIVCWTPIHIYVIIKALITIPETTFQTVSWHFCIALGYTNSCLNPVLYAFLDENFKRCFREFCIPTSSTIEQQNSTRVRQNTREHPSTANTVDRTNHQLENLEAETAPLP
How it was run: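 Rat striatal membranes incubated 5 min at 30 °C in pH 7.5 HEPES buffer with 100 mM NaCl, 1 mM MgCl2 and 0.5 nM [35S]GTPgS, then 5 min with compound. Gαo-bound [35S]GTPgS isolated by immunoprecipitation and counted by liquid scintillation.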

[2] = tested on: human astrocyte TLR2 receptors; assay: Release of pro-inflammatory cytokines from primary human astrocytes; format: cell-based
Description: A primary astrocyte culture was prepared according to the provider (Lonza). The adherent astrocytes were trypsinized by 0.25% trypsin-EDTA, then collected and sub-cultured in 12-well plate (1.2 ml/well). When the cells were 80-85% confluent, cells were treated in an incubator under 5% CO2 with 100 fM, 10 pM or 1 nM Compound C0105 immediately followed by the addition of Ab42 ([…]), LPS (1 mg/ml), LTA-SA (1 mg/ml) and PGN-SA (10 mg/ml); i.e., simultaneously adding the insulting ligand and Compound C0105 to the cells. Vehicle groups were treated with 0.1% DMSO only. Incubation continued for 24 hours post addition. Culture medium was used as the blank (non-treat) and the levels of cytokines, TNF-a, IL-6 and IL-1b in 200 ml of culture medium were determined. Each well was sampled once.
Plates were washed 3 times with ice-cold 50 mM Tris HCl (pH 7.4) and incubated at 30° C. with 200 ml medium derived from the above-mentioned conditions. […] Plates were washed twice with 200 ml ice-cold Tris HCl, pH 7.4 and the residual FITC signals were determined by multimode plate reader, DTX880 (Beckman).
A primary astrocyte culture was prepared according to the provider (Lonza). […] Culture medium was used as the blank (non-treat) and the levels of cytokines, TNF-a, IL-6 and IL-1b in 200 ml of culture medium were determined. […]

Chain of FLNA interactions with CXCR4, CD4 and CCR5 (P21333 2-2647 limits assumed): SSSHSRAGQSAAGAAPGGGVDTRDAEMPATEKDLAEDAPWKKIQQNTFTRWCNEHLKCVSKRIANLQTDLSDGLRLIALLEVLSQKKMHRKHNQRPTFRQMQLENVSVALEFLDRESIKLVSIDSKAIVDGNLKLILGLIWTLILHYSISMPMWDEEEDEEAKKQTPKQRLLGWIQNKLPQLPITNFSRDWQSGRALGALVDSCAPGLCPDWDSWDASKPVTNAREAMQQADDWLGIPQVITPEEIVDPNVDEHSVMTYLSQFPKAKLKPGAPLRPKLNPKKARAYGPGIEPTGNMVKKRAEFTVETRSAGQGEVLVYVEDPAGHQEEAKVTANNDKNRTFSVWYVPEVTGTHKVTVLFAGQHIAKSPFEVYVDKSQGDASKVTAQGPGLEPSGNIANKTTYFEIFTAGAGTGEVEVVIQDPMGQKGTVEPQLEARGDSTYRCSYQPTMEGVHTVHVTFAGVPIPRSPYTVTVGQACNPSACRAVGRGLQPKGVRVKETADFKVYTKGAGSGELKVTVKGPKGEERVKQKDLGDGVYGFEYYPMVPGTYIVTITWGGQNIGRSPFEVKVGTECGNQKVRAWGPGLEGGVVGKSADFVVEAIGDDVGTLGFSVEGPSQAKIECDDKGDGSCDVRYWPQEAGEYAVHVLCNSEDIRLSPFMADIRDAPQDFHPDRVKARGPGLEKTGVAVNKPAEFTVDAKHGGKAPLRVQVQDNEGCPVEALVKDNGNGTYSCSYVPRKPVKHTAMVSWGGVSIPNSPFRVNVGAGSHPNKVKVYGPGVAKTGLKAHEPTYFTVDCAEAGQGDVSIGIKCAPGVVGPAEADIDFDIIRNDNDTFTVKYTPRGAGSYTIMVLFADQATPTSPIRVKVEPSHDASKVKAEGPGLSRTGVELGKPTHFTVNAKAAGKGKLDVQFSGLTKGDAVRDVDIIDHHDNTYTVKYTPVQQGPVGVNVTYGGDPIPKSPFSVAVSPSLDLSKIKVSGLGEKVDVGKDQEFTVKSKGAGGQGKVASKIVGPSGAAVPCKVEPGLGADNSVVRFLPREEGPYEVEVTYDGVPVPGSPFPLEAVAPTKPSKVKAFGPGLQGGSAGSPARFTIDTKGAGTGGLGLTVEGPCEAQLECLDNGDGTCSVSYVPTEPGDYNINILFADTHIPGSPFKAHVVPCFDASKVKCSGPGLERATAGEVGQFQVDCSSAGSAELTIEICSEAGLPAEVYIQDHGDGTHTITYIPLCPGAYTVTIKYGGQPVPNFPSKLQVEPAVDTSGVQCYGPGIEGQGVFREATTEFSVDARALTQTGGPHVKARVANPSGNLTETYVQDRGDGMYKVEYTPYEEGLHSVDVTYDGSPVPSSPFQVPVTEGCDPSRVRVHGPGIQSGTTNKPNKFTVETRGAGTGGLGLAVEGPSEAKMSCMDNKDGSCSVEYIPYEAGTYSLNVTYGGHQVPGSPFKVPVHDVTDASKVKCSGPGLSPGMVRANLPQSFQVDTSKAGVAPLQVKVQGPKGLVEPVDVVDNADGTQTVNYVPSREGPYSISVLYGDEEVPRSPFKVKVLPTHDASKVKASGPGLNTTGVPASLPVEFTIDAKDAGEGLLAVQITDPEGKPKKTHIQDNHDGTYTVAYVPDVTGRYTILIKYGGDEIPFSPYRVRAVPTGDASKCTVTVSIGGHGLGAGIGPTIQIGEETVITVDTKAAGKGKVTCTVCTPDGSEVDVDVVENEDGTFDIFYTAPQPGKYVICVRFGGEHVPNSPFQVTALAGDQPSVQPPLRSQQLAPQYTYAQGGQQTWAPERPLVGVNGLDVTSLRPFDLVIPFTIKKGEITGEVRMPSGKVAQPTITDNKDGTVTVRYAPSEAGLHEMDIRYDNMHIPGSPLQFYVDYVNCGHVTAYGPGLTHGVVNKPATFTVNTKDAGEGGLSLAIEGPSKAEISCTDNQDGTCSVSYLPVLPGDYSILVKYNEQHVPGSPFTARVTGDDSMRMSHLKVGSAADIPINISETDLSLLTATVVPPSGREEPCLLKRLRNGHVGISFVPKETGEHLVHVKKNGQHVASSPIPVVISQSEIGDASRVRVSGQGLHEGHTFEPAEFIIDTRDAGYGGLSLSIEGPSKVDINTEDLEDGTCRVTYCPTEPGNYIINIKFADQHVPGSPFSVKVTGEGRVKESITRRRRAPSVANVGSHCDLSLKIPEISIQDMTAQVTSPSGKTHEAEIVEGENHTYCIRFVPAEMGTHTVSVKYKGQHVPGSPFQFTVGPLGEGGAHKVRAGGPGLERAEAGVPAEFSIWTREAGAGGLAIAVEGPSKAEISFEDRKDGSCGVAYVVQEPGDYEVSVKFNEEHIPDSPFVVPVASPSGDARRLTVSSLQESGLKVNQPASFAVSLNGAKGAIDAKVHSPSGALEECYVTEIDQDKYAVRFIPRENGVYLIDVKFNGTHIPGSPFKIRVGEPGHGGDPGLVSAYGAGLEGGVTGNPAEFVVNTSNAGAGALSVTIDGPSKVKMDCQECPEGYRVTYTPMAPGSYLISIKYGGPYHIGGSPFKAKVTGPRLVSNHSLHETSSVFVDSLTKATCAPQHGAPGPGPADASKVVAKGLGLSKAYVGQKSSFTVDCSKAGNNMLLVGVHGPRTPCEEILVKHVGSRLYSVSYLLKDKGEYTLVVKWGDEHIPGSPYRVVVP

CN1CCC2(CC1)NCC(=O)N2Cc1ccccc1 [Compound C0105M]
FLNA linkages with CXCR4, CD4 and CCR5 (in words) [1]: reduced these linkages | MOR agonist activity ([35S]GTPgS binding to Gao) (mu opiate receptor (MOR); 0.1 μM compound as agonist): 198.1% | MOR agonist activity ([35S]GTPgS binding to Gao) (mu opiate receptor (MOR); 1 μM + BFNA): 73.1% | MOR agonist activity ([35S]GTPgS binding to Gao) (mu opiate receptor (MOR); 1 μM compound as agonist): 220.3% | Ab42-induced inflammatory cytokine production (in words) ([2]; Ab42 exposure): nearly abolishes this cytokine production | Release of the three pro-inflammatory cytokines (in words) ([2]; LTA-SA or PGN-SA insult, human astrocytes): substantially inhibited the release
